Patent US4237045A, “N-substituted cyclopeptide derivatives and preparation thereof” (American Home Products Corporation, priority 1978, dated 1980)

What was measured:
[1] = test system: Klebsiella pneumoniae; assay: serial broth dilution test, growth inhibition; assay type: cell-based; conditions: nutrient broth, incubated at 37° C. for 2 days, examined for presence of growth
Experimental: (§1) Grove and W. A. Randall in "Assay Methods of Antibiotics", Med. Encycl. Inc., New York, 1955.
(§2) For example, by employing a test like the serial broth dilution, see Grove and Randall, cited above, in which dilutions of the compounds of this invention in nutrient broth are inoculated with the microorganisms or fungi, described above, incubated at 37° C. for 2 days, respectively, and examined for the presence of growth, it may be shown that isomers L and M of cyclo-[N-[1-(1-methylethyl)-2-cyclohexylamino-2-oxo-ethyl]-alanyl-phenylalanyl-valylglycyl-leucyl-methionyl] (described in Example 2) are able to inhibit growth totally in this system of Klebsiella pneumoniae and Serratia marcescens at a concentration of 100/mcg/ml.

[2] = test system: Serratia marcescens; assay: serial broth dilution test, growth inhibition; assay type: cell-based; conditions: nutrient broth, incubated at 37° C. for 2 days, examined for presence of growth
Experimental: as §1, §2

SMILES: CSCC[C@@H]1NC(=O)[C@H](CC(C)C)NC(=O)CNC(=O)[C@H](C(C)C)NC(=O)[C@H](Cc2ccccc2)NC(=O)[C@H](C)N(C(C(=O)NC2CCCCC2)C(C)C)C1=O (stereo partly drawn) [isomer L, Cyclo[N-[1-(1-methylethyl)-2-cyclohexylamino-2-oxo-ethyl]-alanyl-phenylalanyl-valyl-glycyl-leucyl-methionyl]]
- concentration able to inhibit growth totally [1]: 100 µg/mL
- concentration able to inhibit growth totally [2]: 100 µg/mL
